Assay results reported in patent US20240101957A1, “METHODS AND COMPOSITIONS FOR GENERATING EMBRYOS IN VITRO FROM PLURIPOTENT STEM CELLS” (California Institute of Technology, priority 2022, published 2024).
“Also recorded” adds a separate entry of the source.

B1: BMP4: bone morphogenic protein-4, TGFβ superfamily member (protein, UniProt P12644 293-408, looked up)
Bone morphogenetic protein 4: SPKHHSQRARKKNKNCRRHSLYVDFSDVGWNDWIVAPPGYQAFYCHGDCPFPLADHLNSTNHAIVQTLVNSVNSSIPKACCVPTELSAISMLYLDEYDKVVLKNYQEMVVEGCGCR
B2: Activin-A: an agonist of SMAD2.3 signaling (protein, UniProt P08476 311-426, looked up)
Inhibin beta A chain: GLECDGKVNICCKKQFFVSFKDIGWNDWIIAPSGYHANYCEGECPSHIAGTSGSSLSFHSTVINHYRMRGHSPFANLKSCCVPTKLRPMSMLYYDDGQNIIKKDIQNMIVEECGCS
modifications: Inhibin beta A chain
notes: an agonist of SMAD2.3 signaling

Tests used:
Assay type in all cases: cell-based
human embryo-like model [1] = assay: Number of SOX17/NANOG/AP2γ triple-positive primordial germ cell-like cells in treated embryoids; details: Day 4 embryoids; vs control
Description: (§1) To generate the three-dimensional stem cell-derived model of the post-implantation embryo, RSeT cells between 2 and 6 passages post-conversion to RSeT media were passaged as normal. The media for extraembryonic-like cells (induced GATA6, induced GATA6-SOX17 or induced GATA3-AP2γ) was changed to N2B27 with 5% Knockout Serum Replacement and 1 μg/mL DOX on the following day (Day −3). This media was refreshed every 24 hours for 3 days. On Day 0 (the day of aggregation), an Aggrewell dish (34415, STEMCELL Technologies) was prepared by pre-coating with anti-adherence solution (07010, STEMCELL Technologies) and centrifuging at 2000 g for 5 minutes. Wells were washed twice with PBS prior to the addition of experiment media. This media consisted of N2B27 with 5% knockout serum replacement, 1 μg/mL doxycycline, and 10 μM Y-27632. Induced cells and wildtype ESCs were enzymatically dissociated 1 hour after addition of 10 μM Y-27632 to wells containing cells for inducible human embryoid generation. Dissociated cells were pelleted and resuspended in experiment media and placed in gelatin-coated wells for MEF depletion. After 15-30 minutes, cells were counted, mixed, and plated into an Aggrewell dish with a final calculation of 8 wildtype-ESC, 8 hypoblast-like, and 16 trophoblast-like cells plated per microwell in the Aggrewell. At 8 d.p.f., in vitro cultured human embryos had 32:24:228 epiblast:hypoblast:trophoblast cells. Importantly, however, many of the trophoblast cells were not in contact with the inner cell mass-derived tissues or were terminally differentiated. Additionally, inducible GATA6-SOX17 cells in culture proliferated slower than the other two cell populations after doxycycline addition. Therefore, an initial seeding density with: (1) a total cell number similar to that used in mouse models that allowed for successful cell sorting; (2) a ratio of cells that reflected the peri-implantation embryo; and (3) a reduced number of inducible GATA3-AP2γ cells and an increased number of inducible GATA6-SOX17 cells was utilized. […]

[2] = tested on: inducible human embryoids; assay: Formation of organized inducible human embryoids with BMP inhibitor added between days 0-2; details: added between days 0-2 post-aggregation; vs untreated control
Description: as §1, with “Aggrewell.” for “Aggrewell. At 8 d.p.f., in vitro cultured human embryos had 32:24:228 epiblast:hypoblast:trophoblast cells. Importantly, however, many of the trophoblast cells were not in contact with the inner cell mass-derived tissues or were terminally differentiated. Additionally, inducible GATA6-SOX17 cells in culture proliferated slower than the other two cell populations after doxycycline addition. Therefore, an initial seeding density with: (1) a total cell number similar to that used in mouse models that allowed for successful cell sorting; (2) a ratio of cells that reflected the peri-implantation embryo; and (3) a reduced number of inducible GATA3-AP2γ cells and an increased number of inducible GATA6-SOX17 cells was utilized.”

human embryo-like model [3] = assay: Differentiation of the inner epiblast-like domain (SOX2, CDX2, AP2a immunofluorescence) in treated human embryo-like model; details: treated between 48- and 96-hours post-aggregation; Day 4 and Day 6; compared to untreated control or BMP4 treated structures
Description: as §1, with “Aggrewell.” for “Aggrewell. At 8 d.p.f., in vitro cultured human embryos had 32:24:228 epiblast:hypoblast:trophoblast cells. Importantly, however, many of the trophoblast cells were not in contact with the inner cell mass-derived tissues or were terminally differentiated. Additionally, inducible GATA6-SOX17 cells in culture proliferated slower than the other two cell populations after doxycycline addition. Therefore, an initial seeding density with: (1) a total cell number similar to that used in mouse models that allowed for successful cell sorting; (2) a ratio of cells that reflected the peri-implantation embryo; and (3) a reduced number of inducible GATA3-AP2γ cells and an increased number of inducible GATA6-SOX17 cells was utilized.”

Row | Molecule | number of primordial germ cell-like cells (human embryo-like model [1]) | formation of organized structures (embryoid formation) [2] | CDX2 and AP2a upregulation in the inner domain (human embryo-like model [3]) | SOX2 expression in the inner domain (human embryo-like model [3])
1 | c1ccc2c(-c3cnn4cc(-c5ccc(N6CCNCC6)cc5)cnc34)ccnc2c1 [LDN193189] | decreased | blocked formation of organized structures; also recorded: failing to form | lesser CDX2 and AP2a upregulation | increased maintenance of SOX2 expression
2 | B1 | minimal effect |  |  | 
3 | B2 | minimal effect |  |  | 
